Consider 1 molecule from EPA's ToxValDB 9.5 (doi:10.2903/j.efsa.2006.57r).

One data set deals with Oryctolagus sp. The following applies: reproduction developmental.
The test system of a further data set is Cucumis sativus. Conditions: not reported; other.
The next data set has as its system Canidae. Conditions: chronic; duration: 1 years; oral; Dog Other; body weight.
For the next data set, the system named is Tagia sp. The following applies: acute; mortality.
In the next data set the test system is Anas platyrhynchos. The following applies: acute; oral; unspecified; mortality.
The next data set has as its system Rattus norvegicus. The following applies: oral.
The test system of the next data set is Ictalurus punctatus. Conditions: acute; duration: 96 hours; mortality.
In another data set the test system is Daphnia magna. Conditions: chronic/long-term; duration: 21 days; mortality.
For the next data set, the system named is Apis mellifera. The following applies: acute, mortality.
For the next data set, the system named is Pimephales promelas. The following applies: chronic/long-term; duration: 35 days; other.
For another data set, the system named is Colinus virginianus. Conditions: reproduction developmental; F.
A further data set deals with Aphidius rhopalosiphi. Briefly: LR50; higher = less toxic. Conditions: not reported; mortality.
The subject of the next data set is Typhlodromus pyri. Nature of the data set: LR50; higher = less toxic. Conditions: not reported; mortality.

Converted amounts (≈) assume the structure as drawn.

As a reminder, the NOAEL is the highest tested level that showed no adverse finding. On to `CCOC(=O)C1CC(=O)C(=C(O)C2CC2)C(=O)C1` (stereo not given) [Trinexapac-ethyl], for which the NOAEL in the data set on Oryctolagus sp. was 60 mg/kg-day; in the data set with Canidae, 32 mg/kg-day; in the data set with Rattus norvegicus (subchronic, duration: 90 days, body weight) it was not above 34 mg/kg-day. Besides, the NOEC with Cucumis sativus is more than 24 g/ha; with Daphnia magna, 2.4 mg/L; in the data set on Pimephales promelas, 0.41 mg/L; in the data set with Colinus virginianus, not below 53.3 mg/kg-day. In addition, the LC50 in the data set with Tagia sp. was more than 250 mg/kg; in the data set with Ictalurus punctatus, 35 µg/mL (≈ 139 µM). Besides, the LD50 in the data set with Anas platyrhynchos is more than 2000 mg/kg; in the data set on Rattus norvegicus (acute, mortality), 4210 mg/kg; in the data set with Apis mellifera (dermal), 69.6 µg/piece; in the data set on Apis mellifera (oral, unspecified) it was more than 108 µg/piece. In addition, the LR50 was 114 g/ha in the data set on Aphidius rhopalosiphi and 197 g/ha in the data set on Typhlodromus pyri.
